Source: patent US10004701B2, “Methods and compositions for treating infection” (UNIVERSITY OF ROCHESTER, priority 2012, dated 2018)
Where a name gives a salt, the structure may show the parent alone. Read-outs that look alike come from different tables or passages of the source.

Legend:
Experiment in all cases: AK assay 384-well format, Prestwick library screening
[1] = system: E. faecium; type: cell-based, Enterococcus faecium; details: 50 μM final drug concentration; for fold induction at 50 µM: Enterococcus faecium, 3 h
[2] = system: S. aureus strain USA300-0114; type: cell-based, Staphylococcus aureus; details: 50 μM final drug concentration; for fold induction at 50 µM: Staphylococcus aureus, USA300, 3 h
[3] = system: K. pneumoniae; type: cell-based, Klebsiella pneumoniae; details: 50 μM final drug concentration; for fold induction at 50 µM: Klebsiella pneumoniae, 3 h
[4] = system: A. baumannii strain 98-37-09; type: cell-based, Acinetobacter baumannii; details: 50 μM final drug concentration; for fold induction at 50 µM: Acinetobacter baumannii, 983709, 3 h
[5] = system: P. aeruginosa; type: cell-based, Pseudomonas aeruginosa; details: 50 μM final drug concentration; for fold induction at 50 µM: Pseudomonas aeruginosa, 3 h
[6] = system: E. cloacae; type: cell-based, Enterobacter cloacae; details: 50 μM final drug concentration; for fold induction at 50 µM: Enterobacter cloacae, 3 h
[7] = system: E. coli; type: cell-based, Escherichia coli; details: 50 μM final drug concentration; for fold induction at 50 µM: Escherichia coli, 3 h
[8] = planktonic, cutoff for positive-scoring molecules 3-fold increase, read-out: AK-based Prestwick Library Screening Results, E. faecium (fold increase in extracellular AK activity)
[9] = planktonic, cutoff for positive-scoring molecules 3-fold increase, read-out: AK-based Prestwick Library Screening Results, S. aureus (fold increase in extracellular AK activity)
[10] = planktonic, cutoff for positive-scoring molecules 3-fold increase, read-out: AK-based Prestwick Library Screening Results, K. pneumoniae (fold increase in extracellular AK activity)
[11] = planktonic, cutoff for positive-scoring molecules 3-fold increase, read-out: AK-based Prestwick Library Screening Results, A. baumannii (fold increase in extracellular AK activity)
[12] = planktonic, cutoff for positive-scoring molecules 3-fold increase, read-out: AK-based Prestwick Library Screening Results, P. aeruginosa (fold increase in extracellular AK activity)
[13] = planktonic, cutoff for positive-scoring molecules 3-fold increase, read-out: AK-based Prestwick Library Screening Results, E. cloacae (fold increase in extracellular AK activity)
[14] = planktonic, cutoff for positive-scoring molecules 3-fold increase, read-out: AK-based Prestwick Library Screening Results, E. coli (fold increase in extracellular AK activity)
[15] = planktonic, […], read-out: AK-based Prestwick Library Screening Results, E. faecium (fold increase in extracellular AK activity)
[16] = planktonic, […], read-out: AK-based Prestwick Library Screening Results, S. aureus (fold increase in extracellular AK activity)
[17] = planktonic, […], read-out: AK-based Prestwick Library Screening Results, K. pneumoniae (fold increase in extracellular AK activity)
[18] = planktonic, […], read-out: AK-based Prestwick Library Screening Results, A. baumannii (fold increase in extracellular AK activity)
[19] = planktonic, […], read-out: AK-based Prestwick Library Screening Results, P. aeruginosa (fold increase in extracellular AK activity)
[20] = planktonic, […], read-out: AK-based Prestwick Library Screening Results, E. cloacae (fold increase in extracellular AK activity)
[21] = planktonic, […], read-out: AK-based Prestwick Library Screening Results, E. coli (fold increase in extracellular AK activity)

## COCCOC(=O)C1=C(C)NC(C)=C(C(=O)OC(C)C)C1c1cccc([N+](=O)[O-])c1 (stereo not drawn) [Nimodipine]
[1]; [8]
  fold induction at 50 µM: 1
[2]; [9]
  fold induction at 50 µM: 0.7
[3]; [10]
  fold induction at 50 µM: 0.7
[4]; [11]
  fold induction at 50 µM: 1
[5]; [12]
  fold induction at 50 µM: 0.9
[6]; [13]
  fold induction at 50 µM: 1.4
[7]; [14]
  fold induction at 50 µM: 0.9

## COC(=O)C1=C(C)NC(C)=C(C(=O)OC(C)C)C1c1cccc2nonc12 (stereo not drawn) [Isradipine]
[1]; planktonic E. faecium, positive cutoff 3-fold increase, read-out: AK-based Prestwick library screening result, E. faecium (fold increase in extracellular AK activity)
  fold induction at 50 µM: 1.1
[2]; planktonic S. aureus, positive cutoff 3-fold increase, read-out: AK-based Prestwick library screening result, S. aureus (fold increase in extracellular AK activity)
  fold induction at 50 µM: 0.7
[3]; planktonic K. pneumoniae, positive cutoff 3-fold increase, read-out: AK-based Prestwick library screening result, K. pneumoniae (fold increase in extracellular AK activity)
  fold induction at 50 µM: 1.1
[4]; planktonic A. baumannii, positive cutoff 3-fold increase, read-out: AK-based Prestwick library screening result, A. baumannii (fold increase in extracellular AK activity)
  fold induction at 50 µM: 1.2
[5]; planktonic P. aeruginosa, positive cutoff 3-fold increase, read-out: AK-based Prestwick library screening result, P. aeruginosa (fold increase in extracellular AK activity)
  fold induction at 50 µM: 1.1
[6]; planktonic E. cloacae, positive cutoff 3-fold increase, read-out: AK-based Prestwick library screening result, E. cloacae (fold increase in extracellular AK activity)
  fold induction at 50 µM: 1.4
[7]; planktonic E. coli, positive cutoff 3-fold increase, read-out: AK-based Prestwick library screening result, E. coli (fold increase in extracellular AK activity)
  fold induction at 50 µM: 1.1

## C[C@@H]1C[C@@H]([C@H](O)CC2CC(=O)NC(=O)C2)C(=O)[C@@H](C)C1 [Cycloheximide]
[1]; […], read-out: AK-based Prestwick Library Screening Results, E. faecium (fold increase in extracellular AK activity)
  fold induction at 50 µM: 1
[2]; […], read-out: AK-based Prestwick Library Screening Results, S. aureus (fold increase in extracellular AK activity)
  fold induction at 50 µM: 1.1
[3]; […], read-out: AK-based Prestwick Library Screening Results, K. pneumoniae (fold increase in extracellular AK activity)
  fold induction at 50 µM: 1
[4]; […], read-out: AK-based Prestwick Library Screening Results, A. baumannii (fold increase in extracellular AK activity)
  fold induction at 50 µM: 1.2
[5]; […], read-out: AK-based Prestwick Library Screening Results, P. aeruginosa (fold increase in extracellular AK activity)
  fold induction at 50 µM: 1.1
[6]; […], read-out: AK-based Prestwick Library Screening Results, E. cloacae (fold increase in extracellular AK activity)
  fold induction at 50 µM: 0.9
[7]; […], read-out: AK-based Prestwick Library Screening Results, E. coli (fold increase in extracellular AK activity)
  fold induction at 50 µM: 1.3

## C#CCN(C)Cc1ccccc1 [Pargyline hydrochloride]
[1]; 384-well format, cutoff for positive-scoring molecules 3-fold increase, read-out: AK-based Prestwick Library Screening Results, E. faecium (increase in extracellular AK activity)
  fold induction at 50 µM: 0.9
[2]; 384-well format, cutoff for positive-scoring molecules 3-fold increase, read-out: AK-based Prestwick Library Screening Results, S. aureus (increase in extracellular AK activity)
  fold induction at 50 µM: 0.8
[3]; 384-well format, cutoff for positive-scoring molecules 3-fold increase, read-out: AK-based Prestwick Library Screening Results, K. pneumoniae (increase in extracellular AK activity)
  fold induction at 50 µM: 0.8
[4]; 384-well format, cutoff for positive-scoring molecules 3-fold increase, read-out: AK-based Prestwick Library Screening Results, A. baumannii (increase in extracellular AK activity)
  fold induction at 50 µM: 0.9
[5]; 384-well format, cutoff for positive-scoring molecules 3-fold increase, read-out: AK-based Prestwick Library Screening Results, P. aeruginosa (increase in extracellular AK activity)
  fold induction at 50 µM: 1
[6]; 384-well format, cutoff for positive-scoring molecules 3-fold increase, read-out: AK-based Prestwick Library Screening Results, E. cloacae (increase in extracellular AK activity)
  fold induction at 50 µM: 0.9
[7]; 384-well format, cutoff for positive-scoring molecules 3-fold increase, read-out: AK-based Prestwick Library Screening Results, E. coli (increase in extracellular AK activity)
  fold induction at 50 µM: 1

## CC(=O)OCC(=O)[C@@]12OC(C)(C)O[C@@H]1C[C@H]1[C@@H]3C[C@H](F)C4=CC(=O)C=C[C@]4(C)[C@@]3(F)[C@@H](O)C[C@@]12C [Fluocinonide]
[1]; cutoff for positive-scoring molecules 3-fold increase, read-out: AK-based Prestwick Library Screening Results, E. faecium (fold increase in extracellular AK activity)
  fold induction at 50 µM: 1
[2]; cutoff for positive-scoring molecules 3-fold increase, read-out: AK-based Prestwick Library Screening Results, S. aureus (fold increase in extracellular AK activity)
  fold induction at 50 µM: 1.1
[3]; cutoff for positive-scoring molecules 3-fold increase, read-out: AK-based Prestwick Library Screening Results, K. pneumoniae (fold increase in extracellular AK activity)
  fold induction at 50 µM: 0.9
[4]; cutoff for positive-scoring molecules 3-fold increase, read-out: AK-based Prestwick Library Screening Results, A. baumannii (fold increase in extracellular AK activity)
  fold induction at 50 µM: 0.9
[5]; cutoff for positive-scoring molecules 3-fold increase, read-out: AK-based Prestwick Library Screening Results, P. aeruginosa (fold increase in extracellular AK activity)
  fold induction at 50 µM: 1.2
[6]; cutoff for positive-scoring molecules 3-fold increase, read-out: AK-based Prestwick Library Screening Results, E. cloacae (fold increase in extracellular AK activity)
  fold induction at 50 µM: 1.7
[7]; cutoff for positive-scoring molecules 3-fold increase, read-out: AK-based Prestwick Library Screening Results, E. coli (fold increase in extracellular AK activity)
  fold induction at 50 µM: 1

## C[C@@H]1[C@H](O)[C@@H](C)/C=C/C=C/C=C/C=C/C=C/C=C/C=C/[C@H](O[C@@H]2O[C@H](C)[C@@H](O)[C@H](N)[C@@H]2O)C[C@@H]2O[C@](O)(C[C@@H](O)C[C@@H](O)[C@H](O)CC[C@@H](O)C[C@@H](O)CC(=O)O[C@H]1C)C[C@H](O)[C@H]2C(=O)O [Amphotericin B]
[1]; planktonic E. faecium, 384-well, cutoff for positive-scoring molecules 3-fold increase
  AK-based Prestwick Library Screening Results: E. faecium (increase in extracellular AK activity): 0.9
[2]; planktonic S. aureus, 384-well, cutoff for positive-scoring molecules 3-fold increase
  AK-based Prestwick Library Screening Results: S. aureus (increase in extracellular AK activity): 0.5
[3]; planktonic K. pneumoniae, 384-well, cutoff for positive-scoring molecules 3-fold increase
  AK-based Prestwick Library Screening Results: K. pneumoniae (increase in extracellular AK activity): 0.7
[4]; planktonic A. baumannii, 384-well, cutoff for positive-scoring molecules 3-fold increase
  AK-based Prestwick Library Screening Results: A. baumannii (increase in extracellular AK activity): 0.5
[5]; planktonic P. aeruginosa, 384-well, cutoff for positive-scoring molecules 3-fold increase
  AK-based Prestwick Library Screening Results: P. aeruginosa (increase in extracellular AK activity): 0.4
[6]; planktonic E. cloacae, 384-well, cutoff for positive-scoring molecules 3-fold increase
  AK-based Prestwick Library Screening Results: E. cloacae (increase in extracellular AK activity): 0.5
[7]; planktonic E. coli, 384-well, cutoff for positive-scoring molecules 3-fold increase
  AK-based Prestwick Library Screening Results: E. coli (increase in extracellular AK activity): 0.5

## Cc1ncc(CO)c(CO)c1O [Pyridoxine hydrochloride]
[1]; [15]
  fold induction at 50 µM: 1
[2]; [16]
  fold induction at 50 µM: 1.3
[3]; [17]
  fold induction at 50 µM: 1.1
[4]; [18]
  fold induction at 50 µM: 1.4
[5]; [19]
  fold induction at 50 µM: 1.2
[6]; [20]
  fold induction at 50 µM: 1.7
[7]; [21]
  fold induction at 50 µM: 1.4

## Oc1c(I)cc(Cl)c2cccnc12 [Clioquinol]
[1]; [8]
  fold induction at 50 µM: 0.9
[2]; [9]
  fold induction at 50 µM: 0.2
[3]; [10]
  fold induction at 50 µM: 0.6
[4]; [11]
  fold induction at 50 µM: 1.1
[5]; [12]
  fold induction at 50 µM: 0.4
[6]; [13]
  fold induction at 50 µM: 0.5
[7]; [14]
  fold induction at 50 µM: 0.5

## COc1cnc(NS(=O)(=O)c2ccc(N)cc2)nc1 [Sulfameter]
[1]; [15]
  fold induction at 50 µM: 1
[2]; [16]
  fold induction at 50 µM: 1.2
[3]; [17]
  fold induction at 50 µM: 1
[4]; [18]
  fold induction at 50 µM: 2.3
[5]; [19]
  fold induction at 50 µM: 1.1
[6]; [20]
  fold induction at 50 µM: 1.2
[7]; [21]
  fold induction at 50 µM: 1.3
